Two compounds from US20230381223A1, “ORAL PYROPHOSPHATE FOR USE IN REDUCING CALCIFICATION” (PYROGENYX INC., priority 2020, published 2023) can be followed below.

One data set deals with Abcc6−/− mice. The settings on record: female Abcc6−/− mice, oral, 10 mM in drinking water. The protocol: Briefly, mice were kept under routine laboratory conditions with a 12-hour light-dark cycle and ad libitum access to water and chow. Anesthesia was carried out by intraperitoneal injection of the mixture of Zoletil (30 mg/kg, Virbac, France), Xylazine (12.5 mg/kg, Produlab Pharma, The Netherlands) and Butorphanol (3 mg/kg, Richterpharma, Austria) during all procedures.
In this experiment calcification was induced in the myocardium and five days after we determined the Ca^2+-content of the heart.

For data set [1] the following is noted: healthy volunteers, oral, gelatin capsules, 39 mg pyrophosphate/kg. The protocol:
To avoid the unpleasant taste we used capsulated PPi salts instead of water-based solution as the form of delivery. We tested two different capsules: gelatin and cellulose. Subsequently, we determined how PPi is absorbed in individuals affected by PXE compared to its absorption in non-PXE volunteers.
Human studies were conducted in accordance with the Declaration of Helsinki. The oral uptake studies involving healthy human volunteers (female and male) were conducted and all patient samples were handled in an anonymized form. The oral uptake study involving PXE patients involved mutation analysis confirming the diagnosis in PXE patients. The diagnosis of PXE was based on characteristic skin findings, supported by characteristic histopathology, and ocular and vascular involvement.
Gelatin capsules were obtained from Molar Chemicals (Halasztelek, Hungary), cellulose capsules were obtained from Capsuline (Davie, Fla.).
Volunteers and PXE patients (after overnight fasting) were involved in the studies. The duration of ingestion was less than one minute. Blood samples were collected from the vena cubiti before ingestion (0 min) and after 30, 60, 120 and 240 min into CTAD anticoagulated tubes (BD, Franklin Lakes, N.J.), and filtered through Centrisart I 300,000 MWCO filters (Sartorius, Frankfurt, Germany). […]

Turning to `O=P([O-])([O-])OP(=O)(O)O.[K+].[K+]` [K2H2P2O7, Dipotassium Pyrophosphate], the “calcification of the heart (total Ca2+-content) five days after cryo-injury” value with Abcc6−/− mice is recorded as “reduce calcification to the same extent”.

In the case of `O=P([O-])([O-])OP(=O)(O)O.[Na+].[Na+]` [Na2H2P2O7, disodium pyrophosphate, reference compound], the GI discomfort result in data set [1] is “reduced to the minimum”. In addition, the “calcification of the heart (total Ca2+-content) five days after cryo-injury” value in the data set on Abcc6−/− mice is recorded as “reduce calcification to the same extent”.
